Values of other authors in patent US20140005280A1, “CARBOXYMETHYL STARCH AND CHITOSAN POLYELECTROLYTE COMPLEXES” (4413261 Canada Inc. (Spencer Canada), priority 2011, published 2014).

Conditions: US Pharmacopeia, 2000

- solubility: slightly soluble in water
Structure (SMILES): CC(=O)Oc1ccccc1C(=O)O [aspirin, acetylsalicylic acid]
